From patent publication US6699459B2, “Methods of treating lung inflammation” (The Board of Regents of the University of Texas System, priority 2001, dated 2004)

How the values were obtained:
IRF-1 = test: Western blot of IRF-1 in total cell lysates of RSV-infected A549 cells; type: cell-based, human; conditions: whole cell extracts, RSV 12 hours, 400 μM
Description: Western Immunoblot. Total cell lysates and cytoplasmic and nuclear proteins were prepared as previously described, fractionated by SDS-PAGE and transferred to PVDF membrane (20). Membranes were blocked with 5% albumin in TBS-Tween and incubated overnight with a rabbit polyclonal antibody to IRF-1, -3 and -7 (Santa Cruz Biotech, Santa Cruz, Calif.). For secondary detection, a horseradish-coupled anti-rabbit or anti-mouse antibody was used in the enhanced chemiluminescence assay (Amersham Pharmacia Biotec, Arlington Heights, Ill.).

IRF-7 mRNA = test: Northern blot of IRF-7 mRNA in RSV-infected A549 cells; type: cell-based, human; conditions: 400 μM
Description: (§1) Northern Blot. Total RNA was extracted from control and infected A549 cells by the acid guanidium thiocyanate-phenol chloroform method (18). Twenty micrograms of RNA were fractionated on a 1.2% agarose-formaldehyde gel, transferred to nylon membranes and hybridized to a radiolabeled RANTES, IRF-1, -3 and -7 cDNAs, as previously described (19). Hybridization temperature for all probes was 55° C. After washing, membranes were exposed for autoradiography using Kodak XAR film at −70° C. using intensifying screens. After exposure, membranes were stripped and rehybridized with a β-actin probe.

human IRF-1 promoter = test: IRF-1 promoter luciferase reporter in A549 cells; type: cell-based
Description: (§2) Cell transfection. To investigate IRF-1 and -7 gene transcription, A549 cells were transiently transfected with the IRF-1 or -7 promoter, linked to the luciferase reporter gene. Logarithmically growing A549 cells were transfected in triplicate in 60 mm petri dishes by DEAE-Dextran, as previously described (20). Cells were incubated in 2 ml of HEPES buffered DMEM (10 mM Hepes, pH 7.4) containing 20 μl of 60 mg/ml DEAE-Dextran (Amersham Pharmacia Biotec, Arlington Heights, Ill.) premixed with 6 μg of either IRF-1 or -7 plasmids and 1 μg CMV-β galactosidase internal control plasmid. After 3 hours, media was removed and 0.5 ml of 10% (v/v) DMSO in PBS was added to the cells for 2 minutes. Cells were washed with PBS and cultured overnight in 10% FBS/DMEM. The next morning, cells were infected with RSV and cells were lysed at different times post-infectionto measure independently luciferase and galactosidase reporter activity, as previously described (20). Luciferase was normalized to the internal control galactosidase activity. All experiments were performed in duplicate or triplicate.

IRF-3 = test: Microaffinity isolation/Western blot for IRF-3 bound to RANTES ISRE; type: cell-based, human; conditions: nuclear extracts, RSV 12 hours
Description: Microaffinity isolation assay. Microaffinity purification of proteins binding to the RANTES ISRE was performed using a two-step biotinylated DNA-streptavidin capture assay (20). In this assay, duplex oligonucleotides are chemically synthesized containing 5′ biotin (Bt) on a flexible linker (Genosys, the Woodlands, TX). Four hundred micrograms of 12 hours-infected A549 cells nuclear extracts were incubated at 4° C. for 30 minutes with 50 pmoles of Bt ISRE, in the absence or presence of 10 fold molar excess of non-biotinylated ISRE wild type (WT) or mutated (MUT). The binding buffer contained 8 μg poly dI/dC (as nonspecific competitor) and 5% (v/v) glycerol, 12 mM HEPES, 80 mM NaCl, 5 mM DTT, 5 mM Mg2Cl, 0.5 mM EDTA. One hundred μl of a 50% slurry of pre-washed streptavidin-agarose beads was then added to the sample, and incubated at 4° C. for an additional 20 minutes with gentle rocking. Pellets were washed twice with 500 μl binding buffer, and the washed pellets were resuspended in 100 μl 1×SDS-PAGE buffer, boiled and fractionated on a 10% SDS-polyacrylamide gel. After electrophoresis separation, proteins were transferred to polyvinylidene difluoride (PVDF) membrane for Western blot analysis.
Western Immunoblot. Total cell lysates and cytoplasmic and nuclear proteins were prepared as previously described, fractionated by SDS-PAGE and transferred to PVDF membrane (20). […]

human IRF-7 promoter = test: IRF-7 promoter luciferase reporter in A549 cells; type: cell-based
Description: as §2

RANTES = test: RSV-induced RANTES secretion in A549 cells (ELISA); type: cell-based, human; conditions: A549 cells
Description: Cell culture and infection of epithelial cells with RSV. A549, human alveolar type II-like epithelial cells (ATCC, Manassas, Va.), were maintained in F12K medium containing 10% (v/v) fetal bovine serum (FBS), 10 mM glutamine, 100 IU/ml penicillin and 100 μg/ml streptomycin. Small alveolar epithelial cells (SAE) were obtained from Clonetics (San Diego, Calif.) and grown according to the company instructions. Cell monolayers were infected with RSV at multiplicity of infection (MOI) of 1 (unless otherwise stated), as described (17). An equivalent amount of a 20% sucrose solution was added to uninfected A549 cells, as a control. For the antioxidant experiments, cells were pretreated with the antioxidants for one hour and then infected in the presence of the antioxidants. Since BHA was diluted in ethanol, equal amounts of ethanol were added to untreated cells, as a control. Total number of cells, cell viability and viral replication, following antioxidant treatment, were measured by trypan blue exclusion and by plaque assay, respectively. RANTES ELISA. Immunoreactive RANTES was quantitated by a double antibody ELISA kit (DuoSet, R&D Systems, Minneapolis, Minn.) following the manufacturer's protocol.

IRF-3 mRNA = test: Northern blot of IRF-3 mRNA in RSV-infected A549 cells; type: cell-based, human; conditions: data not shown
Description: as §1

Structure (SMILES): COc1ccc(O)c(C(C)(C)C)c1 [BHA, butylated hydroxyanisol]
- RSV-induced IRF-1 protein synthesis (IRF-1): almost completely abolished
- IRF-7 mRNA accumulation (IRF-7 mRNA; 6 and 12 hours post-infection): almost completely blocked
- IRF-7 mRNA accumulation (IRF-7 mRNA; 24 hours post-infection): significantly reduced
- basal level of transcription (IRF-1 promoter) (human IRF-1 promoter; A549 cells): did not affect
- RSV-induced luciferase activity (IRF-1 promoter) (human IRF-1 promoter; RSV 12 hours, 400 μM): completely abolished
- IRF-3 binding to RANTES ISRE (IRF-3): almost completely abolished
- basal level of transcription (IRF-7 promoter) (human IRF-7 promoter; A549 cells): did not affect
- RSV-induced luciferase activity (IRF-7 promoter) (human IRF-7 promoter; RSV 6 hours, 400 μM): completely abolished
- effectiveness in reducing RSV-induced RANTES secretion, compared among the antioxidants (RANTES): most effective
- RSV-induced RANTES production (RANTES; 400 μM, 24 hours, ELISA): significantly block
- IRF-3 mRNA level (IRF-3 mRNA): unaffected
